From patent US8993117B2, “Devices with multiple surface functionality” (The Trustees of Princeton University, priority 2005, dated 2015)

What was measured:
[1] = Quartz crystal microbalance (QCM) surface coverage / loading of phosphonate coatings on Ti; assay type: physicochemical
Experimental: The QCM technique allows accurate, gravimetric determination of mass changes on an electrode which is deposited on a piezoelectric quartz crystal. It is, thus, ideal to monitor surface reactions of target metals when they are used as such electrodes: the QCM oscillates at a resonant frequency which is determined by the cut and mass of the crystal, and, just as for a classical oscillator, changes in electrode mass result in changes in crystal resonant frequency. […] Up to three different reference crystals (prepared in different batches) were used as received to calibrate the QCM. […] To ensure that monolayer coverage (at most) occurred on Ti surface, phosphonic acid-based films were subjected to copious rinsing followed by evacuation (≦10^−2 Torr) until a constant crystal frequency was established (within experimental noise levels of ±2 Hz).
Piezoelectric quarts crystals (International Crystal Manufacturers [ICM]; AT-cut, 1000 Å Ti electrodes, 10 MHz, overtone polished, 0.201 in. electrode diameter) were used for film deposition and as references. […] In each experimental run, the fundamental frequency (fo) of an unreacted crystal was measured. […] A new frequency (fc) was then measured. The crystal was then subjected to rinsing followed by evacuation (≦10^−2 Torr) until a constant frequency was measured (±2 Hz), assumed to be a monolayer coverage of the Ti electrodes. […]

αvβ3 integrins = αvβ3 integrins (Homo sapiens, UniProt P05106+P06756); settings: cited from earlier work
[2] = one week, cited from earlier work
[3] = Solvent rinsing and tape peel testing of coatings (IR/DRIFT); assay type: physicochemical; settings: aerosol in THF, room temperature, no heating
Experimental: Coupons which had been treated were rinsed several times with deposition solvent and, where appropriate, ethanol and/or water, to remove soluble residues. A piece of tape (e.g., 3M red Scotch™ “650” tape or Scotch Masking Tape #234; 37 oz./in. adhesion to steel) was adhered to the derivatized surface of the solvent washed foil sample and quickly removed. The freshly “peeled” coupon was then analyzed again by DRIFT spectroscopy.
Samples of coupons of aluminum, iron, and titanium, prepared as described above, were treated with an aerosol of n-octadecanephosphonic acid in tetrahydrofuron (THF) at room temperature in the ambient environment. Following the spray application of the acid solution the solvent was allowed to evaporate at ambient temperature and the derivatized surfaces of the coupons were analyzed by FTIR. The surfaces where then washed with THF and analyzed both before and after a peel test using red Scotch™ “650” tape.

[4] = Hydrolytic stability of DANSYL-RGDC labelled diphosphonate SAM by fluorimetry; assay type: physicochemical; settings: after about 96 hours at pH 7.5, cleaved at about pH 12
Experimental: To further test the stability of diphosphonate SAMs towards aqueous conditions, fluorimetry was employed. Coupons of Ti-mPEG were then exposed to vapor of […] to yield the surface-bound complex. The complex modified coupons were then treated with a solution of 6-maleimidohexanoic acid in THF and were then rinsed thoroughly, and analyzed via IR (vCO≈1705 cm^−1). The coupons were then placed in a solution of N-(5-dimethylamino-1-naphthyl-sulfonyl)-RGDC (DANSYL-RGDC), then rinsed thoroughly, and probed via IR (vpeptide-CO≈1650-1690 cm^−1). The DANSYL group provides a fluorescent “tag” with which to monitor hydrolysis of the surface.
Fluorophore-labeled coupons were immersed in water at about pH 7.5. Fluorescence intensity of the supernatant was measured over about 90 hours; a calibration curve of DANSYL-RGDC was also prepared to relate concentrations in solution with fluorescence intensity, according to Beer's Law. […] Fluorescence intensity in the supernatant was measured against a second calibration curve of DANSYL-RGDC at about pH 12, and the solution concentration was determined by Beer's Law. […] At this point, the DANSYL-RGDC remaining on the surface was measured by exposing the coupon to strong alkaline (about pH 12) for about 3 hours to cleave any remaining zirconium complex species from the SAM. […]

[5] = pH 7; cited from earlier work

Sequence of αvβ3 integrins (P06756 31-1048): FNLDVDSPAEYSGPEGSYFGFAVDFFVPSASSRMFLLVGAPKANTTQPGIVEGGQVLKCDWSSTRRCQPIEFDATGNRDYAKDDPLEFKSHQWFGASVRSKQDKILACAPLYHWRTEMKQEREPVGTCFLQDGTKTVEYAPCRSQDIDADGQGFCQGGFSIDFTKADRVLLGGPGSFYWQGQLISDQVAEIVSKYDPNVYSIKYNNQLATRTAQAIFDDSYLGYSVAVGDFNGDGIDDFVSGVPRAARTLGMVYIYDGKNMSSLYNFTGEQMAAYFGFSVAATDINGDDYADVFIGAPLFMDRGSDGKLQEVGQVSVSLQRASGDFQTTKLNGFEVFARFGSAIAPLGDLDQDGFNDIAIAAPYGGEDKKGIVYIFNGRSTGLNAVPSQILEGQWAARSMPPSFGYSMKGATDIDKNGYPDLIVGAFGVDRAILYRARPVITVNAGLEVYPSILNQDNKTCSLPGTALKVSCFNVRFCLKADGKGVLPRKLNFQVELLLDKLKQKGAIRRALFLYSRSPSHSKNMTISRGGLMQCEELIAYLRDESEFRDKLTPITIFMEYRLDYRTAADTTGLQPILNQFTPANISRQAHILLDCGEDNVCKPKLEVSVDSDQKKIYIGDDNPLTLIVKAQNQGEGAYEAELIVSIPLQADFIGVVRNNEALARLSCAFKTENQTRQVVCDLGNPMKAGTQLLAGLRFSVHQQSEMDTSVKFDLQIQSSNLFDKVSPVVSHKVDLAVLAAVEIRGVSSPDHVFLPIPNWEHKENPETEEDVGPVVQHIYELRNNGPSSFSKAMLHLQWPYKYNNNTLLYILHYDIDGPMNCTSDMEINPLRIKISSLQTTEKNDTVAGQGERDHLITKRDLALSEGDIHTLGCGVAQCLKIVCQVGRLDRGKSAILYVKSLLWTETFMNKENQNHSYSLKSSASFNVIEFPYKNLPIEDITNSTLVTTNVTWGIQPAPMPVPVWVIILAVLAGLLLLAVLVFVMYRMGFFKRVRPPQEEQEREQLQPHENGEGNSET
Sequence of αvβ3 integrins (P05106 27-788): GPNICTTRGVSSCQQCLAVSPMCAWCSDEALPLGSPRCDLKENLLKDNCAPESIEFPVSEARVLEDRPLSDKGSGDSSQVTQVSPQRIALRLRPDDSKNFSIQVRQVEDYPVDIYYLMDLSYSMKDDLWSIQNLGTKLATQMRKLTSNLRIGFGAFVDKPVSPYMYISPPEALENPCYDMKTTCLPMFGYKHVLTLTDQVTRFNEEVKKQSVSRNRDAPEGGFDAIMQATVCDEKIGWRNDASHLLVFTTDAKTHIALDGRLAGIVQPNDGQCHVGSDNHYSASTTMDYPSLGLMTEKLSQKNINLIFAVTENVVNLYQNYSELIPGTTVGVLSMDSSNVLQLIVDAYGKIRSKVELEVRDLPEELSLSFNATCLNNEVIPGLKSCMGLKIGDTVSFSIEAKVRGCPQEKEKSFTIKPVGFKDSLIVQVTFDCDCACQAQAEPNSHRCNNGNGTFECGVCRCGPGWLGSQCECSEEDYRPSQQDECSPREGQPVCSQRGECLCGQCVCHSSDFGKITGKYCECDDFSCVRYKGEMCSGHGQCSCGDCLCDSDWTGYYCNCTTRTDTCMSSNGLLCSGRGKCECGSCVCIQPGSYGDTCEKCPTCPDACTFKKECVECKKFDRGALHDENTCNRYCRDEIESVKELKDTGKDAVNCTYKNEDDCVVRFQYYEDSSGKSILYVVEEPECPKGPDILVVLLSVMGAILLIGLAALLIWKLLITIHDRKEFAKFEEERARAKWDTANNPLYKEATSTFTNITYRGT

Molecule: Arg-Gly-Asp-Cys (RGDC; printed: Arg-Gly-Asp-Cys) [cysteine modified fibronectin cell attachment peptide]
- RGDC loadings on SAMs of 11-hydroxyphosphonate on Ti [1]: ~0.52 nmol/cm^2

Molecule: cyclic (RGDFV-)
- Specificity towards αvβ3 integrins relative to linear GRGDSPK (αvβ3 integrins): over 100 times

Molecule: CCCCCCCCCCCCCCCCCC[Si](C)(C)Cl [octadecyldimethylchlorosilane]
- Surface hydrolysis of coated powders (in words) [2]: almost total surface hydrolysis

Molecule: CCCCCCCCCCCCCCCCCCP(=O)(O)O [octadecylphosphonic acid]
- Persistence of phosphonic acid layer after washing and peel test, aluminum native oxide [3]: survives washing, but not peel testing
- Persistence of phosphonic acid layer after washing and peel test, iron native oxide [3]: survives both washing and peel testing
- Persistence of phosphonic acid layer after washing, titanium native oxide [3]: readily removed by washing with the deposition solvent
- Bound material lost from the surface of TiO2 ([2]; neutral pH): 16%
- Bound material lost from the surface of ZrO2 ([2]; neutral pH): 5%

Molecule: N-(5-dimethylamino-1-naphthyl-sulfonyl)-RGDC [DANSYL-RGDC]
- Surface loading of DANSYL-RGDC stable at about pH 7.5 [4]: about 0.58 nmol/cm^2

Molecule: (cyclo)-1,6 acetyl-CRGDF-penicillamine-NH2
- Stability relative to linear RGDF [5]: 30 times
